Common to all, as to parameters: dose 10 mg/kg, route oral
For series [1], the system named is Homo sapiens. Description: Tmax in children with uncomplicated malaria assessed as desethylamodiaquine at 10 mg/kg, po administered as single dose. The series is classed as ADME, organism-based. Particulars: in vivo.
The test system of series [2] is Homo sapiens. Nature of the series: AUC in children with uncomplicated malaria assessed as desethylamodiaquine at 10 mg/kg, po administered as single dose. The series is classed as ADME, organism-based, Plasma. Particulars: in vivo.
Series [3] deals with Homo sapiens. Description: Cmax in children with uncomplicated malaria assessed as desethylamodiaquine at 10 mg/kg, po administered as single dose. The series is classed as ADME, organism-based. The note with it: in vivo.
In another series the test system is Plasma. Description: Plasma concentration in children with uncomplicated malaria assessed as desethylamodiaquine at 10 mg/kg, po administered as single dose measured on day 3. The series is classed as ADME, organism-based. The note with it: human, in vivo.
For series [4], the system named is Homo sapiens. Nature of the series: Toxicity in children with uncomplicated malaria assessed as elevated serum aminotransferase levels at 10 mg/kg, po administered as single dose. It is filed as organism-based. The note with it: in vivo.
The test system of series [5] is Homo sapiens. Nature of the series: Toxicity in children with uncomplicated malaria assessed as bradycardia at 10 mg/kg, po administered as single dose. The series is classed as organism-based. Particulars: in vivo.
Series [6] relates to Homo sapiens. Nature of the series: Toxicity in children with uncomplicated malaria assessed as excessive sleepiness at 10 mg/kg, po administered as single dose. It is filed as organism-based. The note with it: in vivo.
Series [7] relates to Homo sapiens. Description: Toxicity in children with uncomplicated malaria assessed as neutropenia at 10 mg/kg, po administered as single dose. It is filed as organism-based. The note with it: in vivo.
Series [8] concerns Homo sapiens. Nature of the series: Toxicity in children with uncomplicated malaria assessed as pruritus at 10 mg/kg, po administered as single dose. It is filed as organism-based. Particulars: in vivo.

For `CCN(CC)Cc1cc(Nc2ccnc3cc(Cl)ccc23)ccc1O.Cl`, the Tmax (commonly the time from dosing to the highest level) in the series on Homo sapiens [1] came to 47.9 h. Also, the AUC (in general, concentration integrated over time) in the series with Homo sapiens [2] amounted to 38516 ng·h/mL. Also, in the series on Homo sapiens [3], the Cmax (as a rule, the highest concentration seen after dosing) is 1185 ng/mL.

Take `CCNCc1cc(Nc2ccnc3cc(Cl)ccc23)ccc1O` [DESETHYL AMODIAQUINE]: the Activity with Plasma was 156.6 ng/mL; with Homo sapiens [4], “Toxic”; in the series on Homo sapiens [5], “Toxic”; in the series on Homo sapiens [6] it was “Toxic”; in the series on Homo sapiens [7] it was “Toxic”; with Homo sapiens [8] it was “Toxic”.

For the origin of these results see ChEMBL document CHEMBL1649114, “Effect of concomitant artesunate administration and cytochrome P4502C8 polymorphisms on the pharmacokinetics of amodiaquine in Ghanaian children with uncomplicated malaria” (Antimicrob Agents Chemother, 2008).
